According to patent publication US20120149660A1, “NOVEL N-SUBSTITUTED 5-HYDROXYPYROLLINDES AS INHIBITORS OF MDM2-P53 INTERACTIONS” (priority 2010, published 2012):
Structures can show the parent of a compound that is named as a salt.

Molecular target: interaction between p53 and MDM2 proteins (recombinant GST-tagged MDM2 / biotinylated p53 peptide) (Homo sapiens, UniProt Q00987)
Experiment: HTRF (homogeneous time-resolved fluorescence) assay of p53-MDM2 interaction inhibition
Type: binding
Details: bsa: 0.02%
Method: The ability of the compounds to inhibit the interaction between p53 and MDM2 proteins was measured by an HTRF (homogeneous time-resolved fluorescence) assay in which recombinant GST-tagged MDM2 binds to a peptide that resembles the MDM2-interacting region of p53. Binding of GST-MDM2 protein and p53-peptide (biotinylated on its N-terminal end) is registered by the FRET (fluorescence resonance energy transfer) between Europium (Eu)-labeled anti-GST antibody and streptavidin-conjugated Allophycocyanin (APC).
[…] Add 10 uL diluted compounds (1:5 dilution in reaction buffer) to each well, mix by shaking Add 20 uL biotinylated p53 peptide (180 nM working solution) in reaction buffer to each well and mix on shaker. Incubate at 37° C. for 1 h. Add 20 uL streptavidin-APC and Eu-anti-GST antibody mixture (6 nM Eu-anti-GST and 60 nM streptavidin-APC working solution) in TBS buffer with 0.2% BSA, shake at room temperature for 30 minutes and read using a TRF-capable plate reader at 665 and 615 nm (Victor 5; Perkin Elmer Wallac). If not specified, the reagents were purchased from Sigma Chemical Co.

interaction between p53 and MDM2 proteins (recombinant GST-tagged MDM2 / biotinylated p53 peptide), sequence (Q00987 whole entry): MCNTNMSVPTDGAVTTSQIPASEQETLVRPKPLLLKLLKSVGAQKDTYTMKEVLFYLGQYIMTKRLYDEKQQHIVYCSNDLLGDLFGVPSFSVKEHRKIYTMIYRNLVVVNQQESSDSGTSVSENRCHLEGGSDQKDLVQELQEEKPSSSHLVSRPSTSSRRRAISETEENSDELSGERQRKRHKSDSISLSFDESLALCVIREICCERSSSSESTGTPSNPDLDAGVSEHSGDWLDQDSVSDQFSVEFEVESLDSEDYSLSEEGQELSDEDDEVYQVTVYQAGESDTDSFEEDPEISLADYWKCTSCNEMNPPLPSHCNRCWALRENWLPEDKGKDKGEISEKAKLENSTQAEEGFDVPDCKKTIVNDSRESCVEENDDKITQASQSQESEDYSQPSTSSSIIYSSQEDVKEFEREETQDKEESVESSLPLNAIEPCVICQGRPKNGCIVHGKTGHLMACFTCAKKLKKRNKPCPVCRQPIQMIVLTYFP

Row | Compound | IC50
1 | CC(C)(C)C[C@@H]1N[C@@H](CO)[C@H](c2cccc(Cl)c2)[C@@]1(C#N)c1ccc(Cl)cc1 (racemic) [Example 1, rac(2S,3R,4R,5R)-4-(3-chloro-phenyl)-3-(4-chloro-phenyl)-2-(2,2-dimethyl-propyl)-5-hydroxymethyl-pyrrolidine-3-carbonitrile] | 2860 nM
2 | CC(C)(C)C[C@@H]1N[C@@H](CO)[C@H](c2cccc(Cl)c2F)[C@@]1(C#N)c1ccc(Cl)cc1F (racemic) [Example 3, rac(2S,3R,4S,5R)-4-(3-chloro-2-fluoro-phenyl)-3-(4-chloro-2-fluoro-phenyl)-2-(2,2-dimethyl-propyl)-5-hydroxymethyl-pyrrolidine-3-carbonitrile] | 971 nM
3 | CC(C)(C)C[C@@H]1N(CCCc2ccc(C(=O)O)cc2)[C@@H](CO)[C@H](c2cccc(Cl)c2F)[C@@]1(C#N)c1ccc(Cl)cc1F [Example 5, 4-{3-[(2S,3R,4S,5R)-4-(3-chloro-2-fluoro-phenyl)-3-(4-chloro-2-fluoro-phenyl)-3-cyano-2-(2,2-dimethyl-propyl)-5-hydroxymethyl-pyrrolidin-1-yl]-propyl}-benzoic acid] | 212 nM
4 | CC(C)(C)C[C@@H]1N[C@@H](CO)[C@H](c2cccc(Cl)c2F)[C@@]1(C#N)c1ccc(Cl)cc1F [Example 7, (2S,3R,4S,5R)-4-(3-chloro-2-fluoro-phenyl)-3-(4-chloro-2-fluoro-phenyl)-2-(2,2-dimethyl-propyl)-5-hydroxymethyl-pyrrolidine-3-carbonitrile] | 182 nM
5 | CCOC(=O)C1CC1CN1[C@@H](CC(C)(C)C)[C@](C#N)(c2ccc(Cl)cc2F)[C@@H](c2cccc(Cl)c2F)[C@@H]1CO (stereo partly drawn) [Example 8, 2-[(2S,3R,4S,5R)-4-(3-chloro-2-fluoro-phenyl)-3-(4-chloro-2-fluoro-phenyl)-3-cyano-2-(2,2-dimethyl-propyl)-5-hydroxymethyl-pyrrolidin-1-ylmethyl]-cyclopropanecarboxylic acid ethyl ester] | 2320 nM
6 | CC(C)(C)C[C@@H]1N(CC#C[Si](C)(C)C)[C@@H](CO)[C@H](c2cccc(Cl)c2F)[C@@]1(C#N)c1ccc(Cl)cc1F [Example 11, (2S,3R,4S,5R)-4-(3-Chloro-2-fluoro-phenyl)-3-(4-chloro-2-fluoro-phenyl)-2-(2,2-dimethyl-propyl)-5-hydroxymethyl-1-(3-trimethylsilanyl-prop-2-ynyl)-pyrrolidine-3-carbonitrile] | 1080 nM
7 | CC(C)(C)C[C@@H]1N(CCCc2ccc(C(N)=O)cc2)[C@@H](CO)[C@H](c2cccc(Cl)c2F)[C@@]1(C#N)c1ccc(Cl)cc1F [Example 12, 4-{3-[(2S,3R,4S,5R)-4-(3-chloro-2-fluoro-phenyl)-3-(4-chloro-2-fluoro-phenyl)-3-cyano-2-(2,2-dimethyl-propyl)-5-hydroxymethyl-pyrrolidin-1-yl]-propyl}-benzamide trifluoroacetate salt] | 1520 nM
8 | Cc1ccc(CCCN2[C@@H](CC(C)(C)C)[C@](C#N)(c3ccc(Cl)cc3F)[C@@H](c3cccc(Cl)c3F)[C@@H]2CO)o1 [Example 13, (2S,3R,4S,5R)-4-(3-chloro-2-fluoro-phenyl)-3-(4-chloro-2-fluoro-phenyl)-2-(2,2-dimethyl-propyl)-5-hydroxymethyl-1-[3-(5-methyl-furan-2-yl)-propyl]-pyrrolidine-3-carbonitrile trifluoroacetate salt] | 1670 nM
9 | (1S,2S)-2-[(2S,3R,4S,5R)-4-(3-chloro-2-fluoro-phenyl)-3-(4-chloro-2-fluoro-phenyl)-3-cyano-2-(2,2-dimethyl-propyl)-5-hydroxymethyl-pyrrolidin-1-ylmethyl]-cyclopropanecarboxylic acid [Example 10b] | 242 nM

Second part, the compound after the results:

Row | IC50 | Compound
10 | 740 nM | CC(C)(C)C[C@@H]1N(CC[C@@H](O)[C@H](O)[C@H](O)CO)[C@@H](CO)[C@H](c2cccc(Cl)c2)[C@@]1(C#N)c1ccc(Cl)cc1 (racemic) [Example 2, rac(2S,3R,4R,5R)-4-(3-chloro-phenyl)-3-(4-chloro-phenyl)-2-(2,2-dimethyl-propyl)-5-hydroxymethyl-1-((3R,4S,5R)-3,4,5,6-tetrahydroxy-hexyl)-pyrrolidine-3-carbonitrile]
11 | 164 nM | CC(C)(C)C[C@@H]1N(CC[C@@H](O)[C@H](O)[C@H](O)CO)[C@@H](CO)[C@H](c2cccc(Cl)c2F)[C@@]1(C#N)c1ccc(Cl)cc1F (racemic) [Example 4, rac(2S,3R,4S,5R)-4-(3-chloro-2-fluoro-phenyl)-3-(4-chloro-2-fluoro-phenyl)-2-(2,2-dimethyl-propyl)-5-hydroxymethyl-1-((3R,4S,5R)-3,4,5,6-tetrahydroxy-hexyl)-pyrrolidine-3-carbonitrile]
12 | 4130 nM | CCOC(=O)c1ccc(CCCN2[C@@H](CC(C)(C)C)[C@](C#N)(c3ccc(Cl)cc3F)[C@@H](c3cccc(Cl)c3F)[C@@H]2CO)cc1 [Example 6, 4-{3-[(2S,3R,4S,5R)-4-(3-chloro-2-fluoro-phenyl)-3-(4-chloro-2-fluoro-phenyl)-3-cyano-2-(2,2-dimethyl-propyl)-5-hydroxymethyl-pyrrolidin-1-yl]-propyl}-benzoic acid ethyl ester]
13 | 2110 nM | CC(C)(C)C[C@@H]1N(Cc2ccc(OCCO)cc2)[C@@H](CO)[C@H](c2cccc(Cl)c2F)[C@@]1(C#N)c1ccc(Cl)cc1F [Example 9, (2S,3R,4S,5R)-4-(3-chloro-2-fluoro-phenyl)-3-(4-chloro-2-fluoro-phenyl)-2-(2,2-dimethyl-propyl)-1-[4-(2-hydroxy-ethoxy)-benzyl]-5-hydroxymethyl-pyrrolidine-3-carbonitrile]
14 | 87 nM | CC(C)(C)C[C@@H]1N(C[C@@H]2C[C@H]2C(=O)O)[C@@H](CO)[C@H](c2cccc(Cl)c2F)[C@@]1(C#N)c1ccc(Cl)cc1F [Example 10a, (1R,2R)-2-[(2S,3R,4S,5R)-4-(3-chloro-2-fluoro-phenyl)-3-(4-chloro-2-fluoro-phenyl)-3-cyano-2-(2,2-dimethyl-propyl)-5-hydroxymethyl-pyrrolidin-1-ylmethyl]-cyclopropanecarboxylic acid]
15 | 2360 nM | C#CCN1[C@@H](CC(C)(C)C)[C@](C#N)(c2ccc(Cl)cc2F)[C@@H](c2cccc(Cl)c2F)[C@@H]1CO [Example 14, (2S,3R,4S,5R)-4-(3-chloro-2-fluoro-phenyl)-3-(4-chloro-2-fluoro-phenyl)-2-(2,2-dimethyl-propyl)-5-hydroxymethyl-1-prop-2-ynyl-pyrrolidine-3-carbonitrile]
16 | 887 nM | COC(=O)c1ccc(C#CCN2[C@@H](CC(C)(C)C)[C@](C#N)(c3ccc(Cl)cc3F)[C@@H](c3cccc(Cl)c3F)[C@@H]2CO)cc1F [Example 15, 4-{3-[(2S,3R,4S,5R)-4-(3-chloro-2-fluoro-phenyl)-3-(4-chloro-2-fluoro-phenyl)-3-cyano-2-(2,2-dimethyl-propyl)-5-hydroxymethyl-pyrrolidin-1-yl]-prop-1-ynyl}-2-fluoro-benzoic acid methyl ester]
17 | 489 nM | CC(C)(C)C[C@@H]1N(CCCC2CCOCC2)[C@@H](CO)[C@H](c2cccc(Cl)c2F)[C@@]1(C#N)c1ccc(Cl)cc1F [Example 16, (2S,3R,4S,5R)-4-(3-chloro-2-fluoro-phenyl)-3-(4-chloro-2-fluoro-phenyl)-2-(2,2-dimethyl-propyl)-5-hydroxymethyl-1-[3-(tetrahydro-pyran-4-yl)-propyl]-pyrrolidine-3-carbonitrile]
18 | 215 nM | CC(C)(C)C[C@@H]1N(CCCc2cn(C(c3ccccc3)(c3ccccc3)c3ccccc3)cn2)[C@@H](CO)[C@H](c2cccc(Cl)c2F)[C@@]1(C#N)c1ccc(Cl)cc1F [Example 17, (2S,3R,4S,5R)-4-(3-chloro-2-fluoro-phenyl)-3-(4-chloro-2-fluoro-phenyl)-2-(2,2-dimethyl-propyl)-5-hydroxymethyl-1-[3-(1-trityl-1H-imidazol-4-yl)-propyl]-pyrrolidine-3-carbonitrile]
19 | 70.8 nM | CC(C)(C)C[C@@H]1N(CC#Cc2ccc(C(=O)O)c(F)c2)[C@@H](CO)[C@H](c2cccc(Cl)c2F)[C@@]1(C#N)c1ccc(Cl)cc1F [Example 18, 4-{3-[(2S,3R,4S,5R)-4-(3-chloro-2-fluoro-phenyl)-3-(4-chloro-2-fluoro-phenyl)-3-cyano-2-(2,2-dimethyl-propyl)-5-hydroxymethyl-pyrrolidin-1-yl]-prop-1-ynyl}-2-fluoro-benzoic acid]
